# Earlier results, collected in patent publication US10736889B2, “Method of treating dyskinesia” (Rutgers, The State University of New Jersey, priority 2011, dated 2020).
# Like-named read-outs stand apart in the source and are kept apart here.
# How the values were obtained:
# [1] = molecular target: κ-opioid receptors (Homo sapiens, UniProt P41145); settings: for Ki: read-out: Ki for κ-opioid receptors; for IC50: read-out: IC50 for κ-opioid receptors
# [2] = molecular target: δ-opioid receptors (Homo sapiens, UniProt P41143); settings: for Ki: read-out: Ki for δ-opioid receptors
# [3] = molecular target: μ-opioid receptors (Homo sapiens, UniProt P35372); settings: for Ki: read-out: Ki for μ-opioid receptors
# [4] = test system: LID; settings: variable effects in monkeys and humans
# [5] = test system: LID; settings: only drug available
# [6] = test system: LID; settings: in vivo
# [7] = test system: hemiparkinsonian marmoset monkeys; settings: lower doses
# [8] = test system: 6-hydroxydopamine-lesioned rat model
# [9] = compared with Nalbuphine itself
# Sequence of δ-opioid receptors (P41143 whole entry): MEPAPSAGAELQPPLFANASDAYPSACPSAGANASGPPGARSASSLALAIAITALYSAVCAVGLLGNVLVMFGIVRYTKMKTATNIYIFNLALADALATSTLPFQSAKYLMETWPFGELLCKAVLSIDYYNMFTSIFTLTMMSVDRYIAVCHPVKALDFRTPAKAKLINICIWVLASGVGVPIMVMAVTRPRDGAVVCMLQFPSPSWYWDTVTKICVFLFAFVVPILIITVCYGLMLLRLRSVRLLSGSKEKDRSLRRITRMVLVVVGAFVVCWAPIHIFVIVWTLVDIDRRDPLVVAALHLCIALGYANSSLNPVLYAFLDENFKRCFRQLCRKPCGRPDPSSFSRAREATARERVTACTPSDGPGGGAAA
# Sequence of κ-opioid receptors (P41145 whole entry): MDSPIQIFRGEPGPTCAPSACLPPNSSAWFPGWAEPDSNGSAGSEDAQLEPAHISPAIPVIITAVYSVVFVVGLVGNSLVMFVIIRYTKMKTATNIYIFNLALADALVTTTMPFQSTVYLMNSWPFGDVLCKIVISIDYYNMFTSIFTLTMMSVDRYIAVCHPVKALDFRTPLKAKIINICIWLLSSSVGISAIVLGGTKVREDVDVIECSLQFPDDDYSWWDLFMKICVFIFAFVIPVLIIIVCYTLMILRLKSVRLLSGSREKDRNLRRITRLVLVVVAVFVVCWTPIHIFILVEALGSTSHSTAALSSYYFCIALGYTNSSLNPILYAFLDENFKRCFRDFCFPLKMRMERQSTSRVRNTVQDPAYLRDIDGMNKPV
# Sequence of μ-opioid receptors (P35372 whole entry): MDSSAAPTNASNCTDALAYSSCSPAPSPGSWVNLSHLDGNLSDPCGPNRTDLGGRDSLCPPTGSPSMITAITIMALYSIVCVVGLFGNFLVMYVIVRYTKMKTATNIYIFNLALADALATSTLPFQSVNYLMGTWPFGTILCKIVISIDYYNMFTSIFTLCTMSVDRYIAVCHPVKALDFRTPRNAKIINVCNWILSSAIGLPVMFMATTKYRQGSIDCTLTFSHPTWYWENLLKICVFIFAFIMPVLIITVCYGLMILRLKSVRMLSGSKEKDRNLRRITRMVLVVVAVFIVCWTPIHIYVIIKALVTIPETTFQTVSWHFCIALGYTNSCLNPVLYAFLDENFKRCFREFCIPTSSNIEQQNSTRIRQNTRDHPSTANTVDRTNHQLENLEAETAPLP
molecule,measurement,setting,value
CC(C)=CCN1CC[C@@]2(C)c3cc(O)ccc3C[C@@H]1C2C (stereo in doubt) [Pentazocine],Ki,[1],~2.2 nM
C=CCN1CCC2(C)c3cc(O)ccc3CC1C2C (stereo not shown) [Alazocine],Ki,[2],~15 nM
same,Ki,[3],~3 nM
same,Ki,[1],~4.7 nM
CNCC[C@@H](Oc1ccccc1C)c1ccccc1 [Atomoxetine],IC50,[2]; read-out: IC50 for δ-opioid receptors,< 5000 nM
same,IC50,[3],~4190 nM
same,IC50,[1],~4380 nM
CCC12CCN(CC3(O)CC3)C(Cc3ccc(O)cc31)C2(C)C (stereo not shown) [Bremazocine],Ki,[2],< 1000 nM
same,IC50,[1],~0.16 nM
Oc1ccc2c(c1)[C@@]13CCCC[C@@]1(O)[C@@H](C2)N(CC1CCC1)CC3 [Butorphanol],Ki,[2],~12 nM
same,Ki,[1],~0.12 nM
C=CCN1CC[C@]23c4c5ccc(OC)c4O[C@H]2[C@@H](O)C=C[C@H]3[C@H]1C5 [Nalodeine],Ki,[2],< 1000 nM
C=CCN1CC[C@]23c4c5ccc(O)c4O[C@H]2C(=O)CC[C@@]3(O)[C@H]1C5 [Naloxone],LID,[4],"no change, increases or decreases"
O=C1CC[C@@]2(O)[C@H]3Cc4ccc(O)c5c4[C@@]2(CCN3CC2CC2)[C@H]1O5 [Naltrexone],LID,[4],"no change, increases or decreases"
Oc1ccc2c3c1O[C@H]1c4oc5ccccc5c4C[C@@]4(O)[C@@H](C2)N(CC2CC2)CC[C@]314 [Naltriben],Ki,[3],~19.8 nM
same,Ki,[1],~82.8 nM
NC(=O)c1ccc2c(c1O)[C@]13CCN(CC4CC4)C(C2)[C@]1(O)CCC(=O)C3 [Samidorphan],Ki,[2],~2.6 nM
same,Ki,[3],~0.052 nM
same,Ki,[1],~0.23 nM
"Cl.NC12CC3CC(CC(C3)C1)C2 [amantadine, 1-adamantanamine hydrochloride]",LID,[5],modestly reduce LID
COc1cccc2c1[C@]13CCN(CC4CC4)[C@H](C2)[C@]1(OC)CCC(=O)C3 [cyprodime],peak-dose LID,[6],significantly reduces
Oc1ccc2c3c1O[C@H]1c4[nH]c5ccccc5c4C[C@@]4(O)[C@@H](C2)N(CC2CC2)CC[C@]314 [naltrindole],levodopa-induced rotations,[7],reduce levodopa-induced rotations
Oc1ccc2c3c1O[C@H]1c4[nH]c5c(c4C[C@@]4(O)[C@@H](C2)N(CC2CC2)CC[C@]314)C[C@@]1(O)[C@H]2Cc3ccc(O)c4c3[C@@]1(CCN2CC1CC1)[C@H]5O4 [nor-BNI],levodopa-induced hyperkinesias,[8],moderates
O=C(CCCCCCCCC(=O)Oc1ccc2c3c1O[C@H]1[C@@H](O)CC[C@@]4(O)[C@@H](C2)N(CC2CCC2)CC[C@]314)Oc1ccc2c3c1O[C@H]1[C@@H](O)CC[C@@]4(O)[C@@H](C2)N(CC2CCC2)CC[C@]314 [sebacoyl di-Nalbuphine ester],bioavailability,[9],improved over that of Nalbuphine itself
N-allyl-normorphine [Nalorphine],Ki,[2],~6.33 nM
